# Test results as given in doi:10.1101/2021.04.08.439011v1 (biorxiv, 2021).
# Where two headings read alike, the source gives them in different places.
# Columns and labels:
# [1] = molecular target: TAOK2 (Homo sapiens, UniProt Q9UL54); settings: 0.1 µM; binder
# [2] = molecular target: MEK5 (Homo sapiens, UniProt Q13163); settings: 0.1 µM; binder
# [3] = molecular target: LCK (Homo sapiens, UniProt P06239); settings: 0.1 µM; binder
# [4] = molecular target: DAPK3 (Homo sapiens, UniProt O43293); settings: 0.1 µM; binder
# [5] = molecular target: TAOK3 (Homo sapiens, UniProt Q9H2K8); settings: 0.1 µM; binder
# [6] = molecular target: CSF1R (Homo sapiens, UniProt P07333); settings: 0.1 µM, binder
# Sequence of CSF1R (P07333 whole entry): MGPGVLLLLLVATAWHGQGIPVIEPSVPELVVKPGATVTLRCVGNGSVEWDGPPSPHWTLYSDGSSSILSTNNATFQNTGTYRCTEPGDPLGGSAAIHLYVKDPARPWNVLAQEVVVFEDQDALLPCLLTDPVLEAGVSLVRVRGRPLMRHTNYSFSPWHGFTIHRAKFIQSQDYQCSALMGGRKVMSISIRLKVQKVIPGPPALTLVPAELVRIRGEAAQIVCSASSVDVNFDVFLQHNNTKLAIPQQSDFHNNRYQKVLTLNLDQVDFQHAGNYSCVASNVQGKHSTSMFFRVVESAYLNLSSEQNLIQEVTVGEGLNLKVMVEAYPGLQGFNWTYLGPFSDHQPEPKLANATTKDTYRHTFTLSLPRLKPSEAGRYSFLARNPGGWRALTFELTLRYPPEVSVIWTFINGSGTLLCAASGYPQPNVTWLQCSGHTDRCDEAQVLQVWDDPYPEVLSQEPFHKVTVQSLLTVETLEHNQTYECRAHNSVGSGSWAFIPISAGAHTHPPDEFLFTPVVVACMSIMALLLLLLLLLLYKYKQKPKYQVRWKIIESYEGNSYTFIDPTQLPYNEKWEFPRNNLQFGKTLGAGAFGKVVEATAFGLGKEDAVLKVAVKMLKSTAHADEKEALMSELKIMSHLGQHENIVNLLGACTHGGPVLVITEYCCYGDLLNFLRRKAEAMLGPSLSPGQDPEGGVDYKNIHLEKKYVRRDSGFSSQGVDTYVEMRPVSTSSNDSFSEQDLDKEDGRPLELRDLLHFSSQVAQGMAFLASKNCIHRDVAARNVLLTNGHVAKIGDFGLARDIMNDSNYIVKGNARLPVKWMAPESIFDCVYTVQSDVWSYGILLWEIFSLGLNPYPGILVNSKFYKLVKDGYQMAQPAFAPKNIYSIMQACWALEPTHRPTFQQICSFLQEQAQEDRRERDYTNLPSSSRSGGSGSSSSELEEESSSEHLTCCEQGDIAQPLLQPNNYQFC
# [7] = molecular target: SGK3 (Homo sapiens, UniProt Q96BR1); settings: 0.1 µM; binder
# [8] = molecular target: PIK3CA(H1047Y) (Homo sapiens, UniProt P42336, H1047Y); settings: 0.1 µM; binder
# [9] = molecular target: PKMYT1 (Homo sapiens, UniProt Q99640); settings: 0.1 µM; binder
# [10] = molecular target: HPK1 (Homo sapiens, UniProt Q92918); settings: 0.1 µM; binder
# Sequence of HPK1 (Q92918 whole entry): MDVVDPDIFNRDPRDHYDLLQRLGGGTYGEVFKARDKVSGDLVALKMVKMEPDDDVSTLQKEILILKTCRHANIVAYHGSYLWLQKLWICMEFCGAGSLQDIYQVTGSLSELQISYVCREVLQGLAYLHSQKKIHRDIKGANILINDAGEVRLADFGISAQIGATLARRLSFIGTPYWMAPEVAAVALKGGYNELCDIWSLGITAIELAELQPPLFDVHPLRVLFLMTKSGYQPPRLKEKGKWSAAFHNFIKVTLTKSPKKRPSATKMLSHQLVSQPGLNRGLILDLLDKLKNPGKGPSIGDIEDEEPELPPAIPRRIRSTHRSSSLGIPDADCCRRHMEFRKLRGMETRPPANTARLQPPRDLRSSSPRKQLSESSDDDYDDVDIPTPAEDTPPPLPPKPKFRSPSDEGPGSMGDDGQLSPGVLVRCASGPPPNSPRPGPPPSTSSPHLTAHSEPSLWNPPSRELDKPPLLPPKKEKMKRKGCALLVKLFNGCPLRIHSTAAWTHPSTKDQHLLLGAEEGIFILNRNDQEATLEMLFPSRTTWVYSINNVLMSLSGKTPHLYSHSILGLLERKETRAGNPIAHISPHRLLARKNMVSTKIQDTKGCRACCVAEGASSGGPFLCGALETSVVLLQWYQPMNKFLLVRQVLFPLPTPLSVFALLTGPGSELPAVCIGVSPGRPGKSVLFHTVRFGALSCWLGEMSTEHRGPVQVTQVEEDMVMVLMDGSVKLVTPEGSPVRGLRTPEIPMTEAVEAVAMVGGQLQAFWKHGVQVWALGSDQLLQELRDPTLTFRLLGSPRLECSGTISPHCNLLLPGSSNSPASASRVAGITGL
# [11] = molecular target: MEK3 (Homo sapiens, UniProt P46734); settings: 0.1 µM; binder
# [12] = molecular target: GSK3A (Homo sapiens, UniProt P49840); settings: 0.1 µM; binder
# [13] = molecular target: MAP3K15 (Homo sapiens, UniProt Q6ZN16); settings: 0.1 µM; binder
# Sequence of MAP3K15 (Q6ZN16 whole entry): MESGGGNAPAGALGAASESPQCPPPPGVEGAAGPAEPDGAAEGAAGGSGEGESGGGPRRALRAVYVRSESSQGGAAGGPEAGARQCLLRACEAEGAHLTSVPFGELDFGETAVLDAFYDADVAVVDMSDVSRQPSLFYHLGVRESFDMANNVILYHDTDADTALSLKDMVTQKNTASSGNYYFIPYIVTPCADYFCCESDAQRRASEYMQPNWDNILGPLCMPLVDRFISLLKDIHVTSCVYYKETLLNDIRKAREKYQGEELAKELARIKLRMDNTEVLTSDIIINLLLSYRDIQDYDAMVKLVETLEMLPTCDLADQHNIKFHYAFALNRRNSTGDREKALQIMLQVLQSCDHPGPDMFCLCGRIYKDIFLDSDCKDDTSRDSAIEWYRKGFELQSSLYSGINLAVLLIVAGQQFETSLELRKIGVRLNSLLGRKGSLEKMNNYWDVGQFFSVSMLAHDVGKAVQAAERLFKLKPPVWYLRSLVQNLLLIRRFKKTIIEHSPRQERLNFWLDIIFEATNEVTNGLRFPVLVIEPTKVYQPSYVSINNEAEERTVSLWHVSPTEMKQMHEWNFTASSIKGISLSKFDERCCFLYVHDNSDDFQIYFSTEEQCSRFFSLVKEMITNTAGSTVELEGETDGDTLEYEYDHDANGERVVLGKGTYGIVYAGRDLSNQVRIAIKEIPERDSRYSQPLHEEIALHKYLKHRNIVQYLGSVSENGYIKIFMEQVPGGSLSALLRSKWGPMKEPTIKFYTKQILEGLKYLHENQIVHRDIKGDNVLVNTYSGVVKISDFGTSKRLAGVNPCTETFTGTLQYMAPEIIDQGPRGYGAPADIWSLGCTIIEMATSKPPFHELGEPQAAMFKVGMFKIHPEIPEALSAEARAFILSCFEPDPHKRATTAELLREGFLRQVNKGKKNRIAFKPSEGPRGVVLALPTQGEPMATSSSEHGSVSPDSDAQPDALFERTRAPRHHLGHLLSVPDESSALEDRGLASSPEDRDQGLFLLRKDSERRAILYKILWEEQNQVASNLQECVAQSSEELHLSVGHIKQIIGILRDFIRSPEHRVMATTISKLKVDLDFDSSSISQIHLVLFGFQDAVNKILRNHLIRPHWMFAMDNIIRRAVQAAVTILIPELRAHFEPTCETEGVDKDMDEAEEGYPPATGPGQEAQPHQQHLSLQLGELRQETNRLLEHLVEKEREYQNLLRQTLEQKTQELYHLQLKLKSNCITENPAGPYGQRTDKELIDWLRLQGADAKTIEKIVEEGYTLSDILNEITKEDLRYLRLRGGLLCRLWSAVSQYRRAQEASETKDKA
# [14] = molecular target: PIM2 (Homo sapiens, UniProt Q9P1W9); settings: 0.1 µM; binder
# [15] = molecular target: EPHA4 (Homo sapiens, UniProt P54764); settings: 0.1 µM; binder
# [16] = molecular target: TNK1 (Homo sapiens, UniProt Q13470); settings: 0.1 µM; binder
# [17] = molecular target: SRPK2 (Homo sapiens, UniProt P78362); settings: 0.1 µM; binder
# [18] = molecular target: CSNK1A1 (Homo sapiens, UniProt P48729); settings: 0.1 µM; binder
# [19] = molecular target: VEGFR2 (Homo sapiens, UniProt P35968); settings: 0.1 µM; binder
# [20] = molecular target: PAK4 (Homo sapiens, UniProt O96013); settings: 0.1 µM; binder
# [21] = molecular target: PIP5K1C (Homo sapiens, UniProt O60331); settings: 0.1 µM; binder
# Sequence of PIP5K1C (O60331 whole entry): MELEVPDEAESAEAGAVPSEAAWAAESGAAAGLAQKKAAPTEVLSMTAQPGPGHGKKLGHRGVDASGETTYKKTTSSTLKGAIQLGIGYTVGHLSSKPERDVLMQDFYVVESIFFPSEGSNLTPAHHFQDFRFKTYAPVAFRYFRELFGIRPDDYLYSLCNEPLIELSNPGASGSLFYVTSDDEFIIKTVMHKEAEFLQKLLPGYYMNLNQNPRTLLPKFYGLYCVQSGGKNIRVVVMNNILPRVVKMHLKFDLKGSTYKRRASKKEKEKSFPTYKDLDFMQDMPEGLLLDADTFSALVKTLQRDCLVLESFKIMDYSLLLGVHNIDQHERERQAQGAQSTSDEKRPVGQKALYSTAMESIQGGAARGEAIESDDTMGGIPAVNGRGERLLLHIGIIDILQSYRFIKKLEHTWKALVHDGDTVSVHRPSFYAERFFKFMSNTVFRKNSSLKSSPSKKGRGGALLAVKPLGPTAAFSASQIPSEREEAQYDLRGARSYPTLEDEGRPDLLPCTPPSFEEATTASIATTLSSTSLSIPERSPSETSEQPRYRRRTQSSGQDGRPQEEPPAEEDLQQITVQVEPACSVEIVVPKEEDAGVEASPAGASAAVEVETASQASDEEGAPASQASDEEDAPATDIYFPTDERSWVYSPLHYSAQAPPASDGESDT
# [22] = molecular target: RIPK4 (Homo sapiens, UniProt P57078); settings: 0.1 µM; binder
# [23] = molecular target: RIOK2 (Homo sapiens, UniProt Q9BVS4); settings: 0.1 µM; binder
# [24] = molecular target: LOK (Homo sapiens, UniProt O94804); settings: 0.1 µM; binder
# [25] = molecular target: EPHA8 (Homo sapiens, UniProt P29322); settings: 0.1 µM; binder
# [26] = molecular target: PLK4 (Homo sapiens, UniProt O00444); settings: 0.1 µM; binder
# [27] = molecular target: CDC2L2 (Homo sapiens, UniProt Q9UQ88); settings: 0.1 µM; binder
# [28] = molecular target: MAK (Homo sapiens, UniProt P20794); settings: 0.1 µM; binder
# Sequence of MAK (P20794 whole entry): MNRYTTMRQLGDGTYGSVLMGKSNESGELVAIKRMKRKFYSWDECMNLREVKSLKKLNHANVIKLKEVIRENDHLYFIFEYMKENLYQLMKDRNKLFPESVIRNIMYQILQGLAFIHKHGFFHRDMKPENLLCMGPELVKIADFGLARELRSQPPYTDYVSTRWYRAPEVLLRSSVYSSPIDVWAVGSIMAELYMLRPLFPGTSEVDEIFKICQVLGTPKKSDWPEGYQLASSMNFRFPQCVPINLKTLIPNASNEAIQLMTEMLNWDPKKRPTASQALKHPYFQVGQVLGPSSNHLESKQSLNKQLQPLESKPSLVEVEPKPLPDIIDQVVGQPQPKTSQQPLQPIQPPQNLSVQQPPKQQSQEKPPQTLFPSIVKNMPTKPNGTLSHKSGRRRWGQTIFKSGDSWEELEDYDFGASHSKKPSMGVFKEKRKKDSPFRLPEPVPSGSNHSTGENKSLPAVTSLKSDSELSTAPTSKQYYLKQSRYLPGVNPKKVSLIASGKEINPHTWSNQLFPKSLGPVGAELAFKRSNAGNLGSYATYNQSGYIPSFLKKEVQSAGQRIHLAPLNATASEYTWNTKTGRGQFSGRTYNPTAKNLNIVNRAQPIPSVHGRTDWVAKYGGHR
# [29] = molecular target: PRKD2 (Homo sapiens, UniProt Q9BZL6); settings: 0.1 µM; binder
# [30] = molecular target: RIOK3 (Homo sapiens, UniProt O14730); settings: 0.1 µM; binder
# [31] = molecular target: EGFR (Homo sapiens, UniProt P00533); settings: 0.1 µM; binder
# Sequence of LCK (P06239 whole entry): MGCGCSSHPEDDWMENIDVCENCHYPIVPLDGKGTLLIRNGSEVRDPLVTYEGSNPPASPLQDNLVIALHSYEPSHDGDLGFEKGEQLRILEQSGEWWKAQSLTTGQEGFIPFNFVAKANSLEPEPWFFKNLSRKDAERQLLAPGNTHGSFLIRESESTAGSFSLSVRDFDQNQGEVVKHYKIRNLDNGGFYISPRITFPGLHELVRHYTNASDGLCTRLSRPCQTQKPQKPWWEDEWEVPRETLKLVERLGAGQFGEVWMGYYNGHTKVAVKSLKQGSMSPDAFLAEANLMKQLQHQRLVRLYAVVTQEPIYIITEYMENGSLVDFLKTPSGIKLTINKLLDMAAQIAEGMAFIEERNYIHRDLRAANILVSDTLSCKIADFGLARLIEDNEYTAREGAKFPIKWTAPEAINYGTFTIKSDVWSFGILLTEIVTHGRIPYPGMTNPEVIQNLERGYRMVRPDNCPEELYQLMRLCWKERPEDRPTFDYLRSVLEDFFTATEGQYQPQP
smiles,measurement,setting,value
"CNc1ncc2cc(-c3ccc(-c4cccc(C)n4)cc3Cl)c(=O)n(C[C@H]3OC[C@H](N)CO3)c2n1 [compound 6, G-5555]",Percent Control,[1],99%
same,Percent Control,[2],13%
same,Percent Control,[3],58%
same,Percent Control,[4],100%
same,Percent Control,[5],100%
same,Percent Control,[6],89%
same,Percent Control,[6]; autoinhibited,97%
same,Percent Control,[7],93%
same,Percent Control,[8],73%
same,Percent Control,[9],100%
same,Percent Control,[10],78%
same,Percent Control,[11],75%
same,Percent Control,[12],100%
same,Percent Control,[13],72%
same,Percent Control,[14],100%
same,Percent Control,[15],100%
same,Percent Control,[16],100%
same,Percent Control,[17],98%
same,Percent Control,[18],100%
same,Percent Control,[19],98%
same,Percent Control,[20],100%
same,Percent Control,[21],100%
same,Percent Control,[22],97%
same,Percent Control,[23],100%
same,Percent Control,[24],37%
same,Percent Control,[25],100%
same,Percent Control,[26],84%
same,Percent Control,[27],100%
same,Percent Control,[28],90%
same,Percent Control,[29],92%
same,Percent Control,[30],85%
same,Percent Control,[31],100%
